# What was measured:
# T. pulmonis = assay: Kirby-Bauer disk diffusion susceptibility test; assay type: cell-based, Tsukamurella pulmonis
# N. carnea = assay: Kirby-Bauer disk diffusion susceptibility test; assay type: cell-based, Nocardia carnea
# A. baumannii = assay: Kirby-Bauer disk diffusion susceptibility test; assay type: cell-based, Acinetobacter baumannii; also: key: I = intermediate activity; S = susceptibility; R = Resistance
# N. cyriacigeorgica = assay: Kirby-Bauer disk diffusion susceptibility test; assay type: cell-based
# S. aureus = assay: Kirby-Bauer disk diffusion susceptibility test; assay type: cell-based, Staphylococcus aureus; also: key: I = intermediate activity; S = susceptibility; R = Resistance
# S. epidermidis = assay: Kirby-Bauer disk diffusion susceptibility test; assay type: cell-based, Staphylococcus epidermidis; also: key: I = intermediate activity; S = susceptibility; R = Resistance
# B. cereus = assay: Kirby-Bauer disk diffusion susceptibility test; assay type: cell-based, Bacillus cereus; also: key: I = intermediate activity; S = susceptibility; R = Resistance
# A. flavus = A. flavus AF-001; cited from earlier work; also: key: I = intermediate activity; S = susceptibility; R = Resistance
# A. fumigatus = A. fumigatus AFu-001; cited from earlier work; also: key: I = intermediate activity; S = susceptibility; R = Resistance
# C. parapsilosis = C. parapsilosis CP-007; cited from earlier work; also: key: I = intermediate activity; S = susceptibility; R = Resistance
# A. terreus = A. terreus ATe-001; cited from earlier work; also: key: I = intermediate activity; S = susceptibility; R = Resistance
# M. fortuitum = assay: Kirby-Bauer disk diffusion susceptibility test; also: key: I = intermediate activity; S = susceptibility; R = Resistance; assay type: cell-based; settings: M. fortuitum strain 1080, isolation year 2011
# M. abscessus = assay: Kirby-Bauer disk diffusion susceptibility test; also: key: I = intermediate activity; S = susceptibility; R = Resistance; assay type: cell-based, Mycobacterium abscessus; settings: M. abscessus strain 690, isolation year 2012
# M. chelonae = assay: Kirby-Bauer disk diffusion susceptibility test; assay type: cell-based; settings: M. chelonae strain 870, isolation year 2011
# [1] = test system: equine herpes virus type 1 (EHV-1); assay: Viral titer reduction; assay type: cell-based; settings: 10 μg/ml
# [2] = T. pulmonis strain 40, isolation year 2015
# [3] = T. pulmonis strain 1991, isolation year 2009
# [4] = N. carnea strain 40, isolation year 2011
# [5] = N. carnea strain 769, isolation year 2009
# [6] = A. baumannii strain 300, isolation year 2001
# [7] = A. baumannii strain 1301, isolation year 2009
# [8] = N. cyriacigeorgica strain 30, isolation year 2005
# [9] = N. cyriacigeorgica strain 199, isolation year 2005
# [10] = S. aureus strain 282, isolation year 2005
# [11] = S. aureus strain 890, isolation year 2010
# [12] = S. epidermidis strain 188, isolation year 2009
# [13] = S. epidermidis strain 982, isolation year 2006
# [14] = B. cereus strain 25, isolation year 2014
# [15] = B. cereus strain 182, isolation year 2013
compound,measurement,setting,value
"NCC[C@H](O)C(=O)N[C@@H]1C[C@H](N)[C@@H](O[C@H]2O[C@H](CN)[C@@H](O)[C@H](O)[C@H]2O)[C@H](O)[C@H]1O[C@H]1O[C@H](CO)[C@@H](O)[C@H](N)[C@H]1O [AMK, Amikacin]",Characteristics of strains: susceptibility or resistance,T. pulmonis; [2],R
same,Characteristics of strains: susceptibility or resistance,T. pulmonis; [3],S
same,Characteristics of strains: susceptibility or resistance,N. carnea; [4],R
same,Characteristics of strains: susceptibility or resistance,N. carnea; [5],S
same,Characteristics of strains: susceptibility or resistance,A. baumannii; [6],R
same,Characteristics of strains: susceptibility or resistance,A. baumannii; [7],S
same,Characteristics of strains: susceptibility or resistance,N. cyriacigeorgica; [8],S
same,Characteristics of strains: susceptibility or resistance,N. cyriacigeorgica; [9],R
same,Characteristics of strains: susceptibility or resistance,S. aureus; [10],S
same,Characteristics of strains: susceptibility or resistance,S. aureus; [11],S
same,Characteristics of strains: susceptibility or resistance,S. epidermidis; [12],S
same,Characteristics of strains: susceptibility or resistance,S. epidermidis; [13],S
"CO/N=C(\C(=O)N[C@@H]1C(=O)N2C(C(=O)O)=C(CSc3nc(=O)c(O)nn3C)CS[C@H]12)c1csc(N)n1 [CEF, Ceftriazone]",Characteristics of strains: susceptibility or resistance,A. baumannii; [6],R
same,Characteristics of strains: susceptibility or resistance,A. baumannii; [7],R
"CCC[C@@H]1C[C@@H](C(=O)N[C@@H]([C@H]2O[C@H](SC)[C@H](O)[C@@H](O)[C@H]2O)[C@H](C)Cl)N(C)C1 [CLI, Clindamycin]",Characteristics of strains: susceptibility or resistance,S. aureus; [10],R
same,Characteristics of strains: susceptibility or resistance,S. aureus; [11],R
same,Characteristics of strains: susceptibility or resistance,B. cereus; [14],R
same,Characteristics of strains: susceptibility or resistance,B. cereus; [15],R
same,Characteristics of strains: susceptibility or resistance,S. epidermidis; [12],S
same,Characteristics of strains: susceptibility or resistance,S. epidermidis; [13],R
"CO/N=C(\C(=O)N[C@@H]1C(=O)N2C(C(=O)O)=C(COC(C)=O)CS[C@H]12)c1csc(N)n1 [CTX, Cefotaxime]",Characteristics of strains: susceptibility or resistance,T. pulmonis; [2],R
same,Characteristics of strains: susceptibility or resistance,T. pulmonis; [3],S
same,Characteristics of strains: susceptibility or resistance,N. carnea; [4],S
same,Characteristics of strains: susceptibility or resistance,N. carnea; [5],S
same,Characteristics of strains: susceptibility or resistance,N. cyriacigeorgica; [8],S
same,Characteristics of strains: susceptibility or resistance,N. cyriacigeorgica; [9],R
Clc1ccccc1C(c1ccccc1)(c1ccccc1)n1ccnc1 [Clotrimazole],Characteristics of the strains: susceptibility class,A. flavus,S
same,Characteristics of the strains: susceptibility class,A. fumigatus,S
same,Characteristics of the strains: susceptibility class,C. parapsilosis,S
same,Characteristics of the strains: susceptibility class,A. terreus,S
"CC[C@H]1OC(=O)[C@H](C)[C@@H](O[C@H]2C[C@@](C)(OC)[C@@H](O)[C@H](C)O2)[C@H](C)[C@@H](O[C@@H]2O[C@H](C)C[C@H](N(C)C)[C@H]2O)[C@](C)(O)C[C@@H](C)C(=O)[C@H](C)[C@@H](O)[C@]1(C)O [ERI, Erythromycin]",Characteristics of strains: susceptibility or resistance,T. pulmonis; [2],R
same,Characteristics of strains: susceptibility or resistance,T. pulmonis; [3],S
same,Characteristics of strains: susceptibility or resistance,N. carnea; [4],R
same,Characteristics of strains: susceptibility or resistance,N. carnea; [5],R
same,Characteristics of strains: susceptibility or resistance,M. fortuitum,R
same,Characteristics of strains: susceptibility or resistance,M. abscessus,S
same,Characteristics of strains: susceptibility or resistance,N. cyriacigeorgica; [8],R
same,Characteristics of strains: susceptibility or resistance,N. cyriacigeorgica; [9],R
same,Characteristics of strains: susceptibility or resistance,S. aureus; [10],R
same,Characteristics of strains: susceptibility or resistance,S. aureus; [11],R
same,Characteristics of strains: susceptibility or resistance,B. cereus; [14],R
same,Characteristics of strains: susceptibility or resistance,B. cereus; [15],R
same,Characteristics of strains: susceptibility or resistance,S. epidermidis; [12],S
same,Characteristics of strains: susceptibility or resistance,S. epidermidis; [13],R
same,Characteristics of strains: susceptibility or resistance,M. chelonae,R
OC(Cn1cncn1)(Cn1cncn1)c1ccc(F)cc1F [Fluconazole],Characteristics of the strains: susceptibility class,A. flavus,R
same,Characteristics of the strains: susceptibility class,A. fumigatus,R
same,Characteristics of the strains: susceptibility class,C. parapsilosis,S
same,Characteristics of the strains: susceptibility class,A. terreus,R
"Nc1nc(O)c2ncn(COC(CO)CO)c2n1 [GCV, ganciclovir]",reduction of the titer (inhibition),[1],1.8 logarithms
"C[C@@H](O)[C@H]1C(=O)N2C(C(=O)O)=C(SCCN=CN)C[C@H]12 [IMP, Imipenem]",Characteristics of strains: susceptibility or resistance,T. pulmonis; [2],S
same,Characteristics of strains: susceptibility or resistance,T. pulmonis; [3],S
same,Characteristics of strains: susceptibility or resistance,N. carnea; [4],R
same,Characteristics of strains: susceptibility or resistance,N. carnea; [5],S
same,Characteristics of strains: susceptibility or resistance,M. fortuitum,R
same,Characteristics of strains: susceptibility or resistance,M. abscessus,R
same,Characteristics of strains: susceptibility or resistance,A. baumannii; [6],R
same,Characteristics of strains: susceptibility or resistance,A. baumannii; [7],S
same,Characteristics of strains: susceptibility or resistance,N. cyriacigeorgica; [8],S
same,Characteristics of strains: susceptibility or resistance,N. cyriacigeorgica; [9],R
same,Characteristics of strains: susceptibility or resistance,M. chelonae,R
CC(=O)N1CCN(c2ccc(OCC3COC(Cn4ccnc4)(c4ccc(Cl)cc4Cl)O3)cc2)CC1 (stereo not shown) [Ketoconazole],Characteristics of the strains: susceptibility class,A. flavus,S
same,Characteristics of the strains: susceptibility class,A. fumigatus,S
same,Characteristics of the strains: susceptibility class,C. parapsilosis,S
same,Characteristics of the strains: susceptibility class,A. terreus,S
"CC(=O)NC[C@H]1CN(c2ccc(N3CCOCC3)c(F)c2)C(=O)O1 [LIN, Linezolid]",Characteristics of strains: susceptibility or resistance,T. pulmonis; [2],R
same,Characteristics of strains: susceptibility or resistance,T. pulmonis; [3],S
same,Characteristics of strains: susceptibility or resistance,N. carnea; [4],S
same,Characteristics of strains: susceptibility or resistance,N. carnea; [5],S
same,Characteristics of strains: susceptibility or resistance,M. fortuitum,R
same,Characteristics of strains: susceptibility or resistance,M. abscessus,S
same,Characteristics of strains: susceptibility or resistance,N. cyriacigeorgica; [8],S
same,Characteristics of strains: susceptibility or resistance,N. cyriacigeorgica; [9],S
same,Characteristics of strains: susceptibility or resistance,M. chelonae,R
"C[C@@H](O)[C@H]1C(=O)N2C(C(=O)O)=C(S[C@@H]3CN[C@H](C(=O)N(C)C)C3)[C@H](C)[C@H]12 [MER, Meropenem]",Characteristics of strains: susceptibility or resistance,A. baumannii; [6],R
same,Characteristics of strains: susceptibility or resistance,A. baumannii; [7],S
"CO[C@H]1/C=C/O[C@@]2(C)Oc3c(C)c(O)c4c(O)c(c(/C=N/N5CCN(C)CC5)c(O)c4c3C2=O)NC(=O)/C(C)=C\C=C\[C@H](C)[C@H](O)[C@@H](C)[C@@H](O)[C@@H](C)[C@H](OC(C)=O)[C@@H]1C [RIF, Rifampicin]",Characteristics of strains: susceptibility or resistance,B. cereus; [14],S
same,Characteristics of strains: susceptibility or resistance,B. cereus; [15],S
"CN(C)[C@@H]1C(O)=C(C(N)=O)C(=O)[C@@]2(O)C(O)=C3C(=O)c4c(O)cccc4[C@@](C)(O)[C@H]3C[C@@H]12 [TET, Tetracycline]",Characteristics of strains: susceptibility or resistance,S. aureus; [10],S
same,Characteristics of strains: susceptibility or resistance,S. aureus; [11],R
same,Characteristics of strains: susceptibility or resistance,B. cereus; [14],R
same,Characteristics of strains: susceptibility or resistance,B. cereus; [15],S
same,Characteristics of strains: susceptibility or resistance,S. epidermidis; [12],S
same,Characteristics of strains: susceptibility or resistance,S. epidermidis; [13],S
"NC[C@H]1O[C@H](O[C@H]2[C@H](O)[C@@H](O[C@H]3O[C@H](CO)[C@@H](O)[C@H](N)[C@H]3O)[C@H](N)C[C@@H]2N)[C@H](N)C[C@@H]1O [TOB, Tobramycin]",Characteristics of strains: susceptibility or resistance,A. baumannii; [6],S
same,Characteristics of strains: susceptibility or resistance,A. baumannii; [7],S
"CN[C@H](CC(C)C)C(=O)N[C@H]1C(=O)N[C@@H](CC(N)=O)C(=O)N[C@H]2C(=O)N[C@H]3C(=O)N[C@H](C(=O)N[C@H](C(=O)O)c4cc(O)cc(O)c4-c4cc3ccc4O)[C@H](O)c3ccc(c(Cl)c3)Oc3cc2cc(c3O[C@@H]2O[C@H](CO)[C@@H](O)[C@H](O)[C@H]2O[C@H]2C[C@](C)(N)[C@H](O)[C@H](C)O2)Oc2ccc(cc2Cl)[C@H]1O [VAN, Vancomycin]",Characteristics of strains: susceptibility or resistance,S. aureus; [10],S
same,Characteristics of strains: susceptibility or resistance,S. aureus; [11],S
same,Characteristics of strains: susceptibility or resistance,B. cereus; [14],S
same,Characteristics of strains: susceptibility or resistance,B. cereus; [15],S
same,Characteristics of strains: susceptibility or resistance,S. epidermidis; [12],S
same,Characteristics of strains: susceptibility or resistance,S. epidermidis; [13],S
Gentamicin,Characteristics of strains: susceptibility or resistance,S. aureus; [10],R
same,Characteristics of strains: susceptibility or resistance,S. aureus; [11],R
same,Characteristics of strains: susceptibility or resistance,S. epidermidis; [12],S
same,Characteristics of strains: susceptibility or resistance,S. epidermidis; [13],R
Penicillin,Characteristics of strains: susceptibility or resistance,M. fortuitum,R
same,Characteristics of strains: susceptibility or resistance,M. abscessus,R
same,Characteristics of strains: susceptibility or resistance,B. cereus; [14],S
same,Characteristics of strains: susceptibility or resistance,B. cereus; [15],S

# Source: patent US11241440B2, “Dihydrooxadiazine compounds for treating infections and cancer” (VALORALIA I MÁS D, SL, priority 2016, dated 2022)
